Target: T1, CtBP2-p300^BRD interaction (Mus musculus, UniProt B2RWS6+P56546)
T1 construct: R1 (1-1000 amino acids, aa), R2 (1001–1201 aa), R3 (1202–1810 aa); made in house; host or cells: E. coli BL21
Assay: In vitro pulldown assay with His-CtBP2 and GST-p300^BRD
Assay type: binding
Conditions: PNSC928 0, 11.8, 23.6, and 47.2 µM; 80 nM GST-p300^BRD and 40 nM His-CtBP2
Experimental: Fig. 4 Identification of PNSC928 and determination of its in vitro and in vivo effects on disruption of CtBP2-p300 interaction. (A) A schematic representation illustrating four regions of the p300 amino acid sequence. (B) Co-IP results. Different combinations of plasmids were cotransfected into MPAEpiC cells. After a 48-hour incubation, cells were lysed and used for immunoprecipitation with anti-Flag agarose. The input and output proteins were probed with anti-Flag and anti-Myc antibodies. n = 3. (C) A schematic representation illustrating the in vitro AlphaScreen setup. (D) AlphaScreen signals for different concentrations of His-CtBP2 and GST-p300^BRD. (E) Chemical structure of PNSC928. (F) IC50 of PNSC928 disrupting CtBP2-p300^BRD interaction. (G and H) In vitro pulldown assay in a reaction consisting of His-CtBP2, GST-p300^BRD, and incremental concentrations of PNSC928 (0, 11.8, 23.6, and 47.2 µM). (G) Pulldown with Ni-NTA beads; (H) Pulldown with GST beads.
To probe this interaction, we established an AlphaScreen system that utilized GST-p300^BRD and His-CtBP2, binding to donor and acceptor beads, respectively (Fig. 4C). […] In vitro assays assessed the effects of PNSC928 on the CtBP2-p300^BRD interaction. […] Furthermore, we assessed the impact of combined LPS and PNSC928 treatment on the expression of key molecules in the NF-κB signaling pathway.

T1 sequence (B2RWS6 1001-1201 limits assumed): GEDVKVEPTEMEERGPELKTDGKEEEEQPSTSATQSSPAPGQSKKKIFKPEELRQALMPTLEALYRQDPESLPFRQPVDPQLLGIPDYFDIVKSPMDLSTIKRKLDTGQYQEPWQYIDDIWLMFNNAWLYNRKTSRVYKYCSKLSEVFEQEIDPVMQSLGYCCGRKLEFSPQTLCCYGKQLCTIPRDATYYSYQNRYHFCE
T1 sequence (P56546 whole entry, the tested form may be a part): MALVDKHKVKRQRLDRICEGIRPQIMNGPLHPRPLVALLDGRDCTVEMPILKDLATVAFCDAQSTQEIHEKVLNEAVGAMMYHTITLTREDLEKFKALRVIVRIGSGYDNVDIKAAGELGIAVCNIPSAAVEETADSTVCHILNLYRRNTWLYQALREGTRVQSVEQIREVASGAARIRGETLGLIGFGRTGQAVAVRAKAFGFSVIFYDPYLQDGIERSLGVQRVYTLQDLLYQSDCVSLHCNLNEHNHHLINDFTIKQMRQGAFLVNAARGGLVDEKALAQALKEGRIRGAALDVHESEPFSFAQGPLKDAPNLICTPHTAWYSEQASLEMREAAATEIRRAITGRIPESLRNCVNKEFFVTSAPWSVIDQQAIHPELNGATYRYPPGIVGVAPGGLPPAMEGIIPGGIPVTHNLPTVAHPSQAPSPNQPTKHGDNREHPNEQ

CC(=CCCC1=CCC(C2COC(=O)C2)OC1O)CCC1=C(C)CCCC1(C)C (stereo not shown) [PNSC928]
Effect on CtBP2-p300^BRD interaction in pulldown assay: disrupts the CtBP2-p300^BRD interaction in a dose-dependent manner
